In brackets after ≈: the same amount, converted by molar mass.
Assays:
S. pyogenes ATCC 19615 = experiment: MIC/MBC broth microdilution, S. pyogenes; format: cell-based, Streptococcus pyogenes; conditions: S. pyogenes
How it was run: (§1)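 BHI broth microdilution (NCCLS); ~10^5 CFU/mL; 37 °C, 18 h. MIC = lowest conc., no visible growth (≥90% vs untreated). MBC = ≤3 colonies, ≥99.9% kill. Water/DMSO/EtOH solvent controls; technical triplicate ×3 biological repeats.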

S. cohnii c.i. = experiment: MIC/MBC broth microdilution, S. cohnii; format: cell-based, Staphylococcus cohnii
How it was run: as §1

E. faecalis c.i. = experiment: MIC/MBC broth microdilution, E. faecalis; format: cell-based, Enterococcus faecalis
How it was run: as §1

S. schleiferi c.i. = experiment: MIC/MBC broth microdilution, S. schleiferi; format: cell-based, Staphylococcus schleiferi
How it was run: as §1

S. agalactiae ATCC 27956 = experiment: MIC/MBC broth microdilution, S. agalactiae; format: cell-based, Streptococcus agalactiae; conditions: S. agalactiae
How it was run: as §1

S. mutans c.i. = experiment: MIC/MBC broth microdilution, S. mutans; format: cell-based, Streptococcus mutans
How it was run: as §1

E. coli ATCC 25922 = experiment: MIC/MBC broth microdilution, E. coli; format: cell-based, Escherichia coli
How it was run: as §1

P. vulgaris ATCC 6896 = experiment: MIC/MBC broth microdilution, P. vulgaris; format: cell-based, Proteus vulgaris
How it was run: as §1

P. aeruginosa ATCC 10145 = experiment: MIC/MBC broth microdilution, P. aeruginosa; format: cell-based
How it was run: as §1

[1] = tested on: immortalized human keratinocytes (HaCaT); experiment: LDH cytotoxicity test, keratinocytes; format: cell-based; conditions: 48 h; for cytotoxicity (LDH), in words: 50-150 μg/mL
How it was run: (§2)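 Cytotoxicity as LDH release after 48 h serum-free treatment (50, 100, 150 μg/mL peptidomimetics) of 46BR.1N fibroblasts or HaCaT keratinocytes seeded at 5000 per well. Absorbance 450 nm; untreated set as 0% and Triton X-100 1% as maximal release; Mann–Whitney U test, p ≤ 0.05.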

fibroblasts (46BR.1N) = experiment: LDH cytotoxicity test, fibroblasts; format: cell-based; conditions: 48 h; for cytotoxicity (LDH), in words: 50-150 μg/mL
How it was run: as §2

| SMILES | MBC (S. pyogenes ATCC 19615; H2O) [µg/mL] | MIC (S. pyogenes ATCC 19615; H2O) [µg/mL] | MBC (S. pyogenes ATCC 19615; water additive DMSO) [µg/mL] | MIC (S. pyogenes ATCC 19615; water additive DMSO) [µg/mL] | MBC (S. pyogenes ATCC 19615; water additive EtOH) [µg/mL] | MIC (S. pyogenes ATCC 19615; water additive EtOH) [µg/mL] | MBC (S. cohnii c.i.; water additive DMSO) [µg/mL] | MIC (E. faecalis c.i.; H2O) [µg/mL] | MIC (E. faecalis c.i.; water additive DMSO) [µg/mL] | MBC (E. faecalis c.i.; water additive EtOH) [µg/mL] | MBC (S. schleiferi c.i.; H2O) [µg/mL] | MIC (S. schleiferi c.i.; H2O) [µg/mL] | MBC (S. schleiferi c.i.; water additive DMSO) [µg/mL] | MIC (S. schleiferi c.i.; water additive DMSO) [µg/mL] | MBC (S. schleiferi c.i.; water additive EtOH) [µg/mL] | MIC (S. schleiferi c.i.; water additive EtOH) [µg/mL] | MIC (S. agalactiae ATCC 27956; water additive EtOH) [µg/mL] | MIC (S. mutans c.i.; water additive DMSO) [µg/mL] | MIC (S. mutans c.i.; water additive EtOH) [µg/mL] | MIC (E. coli ATCC 25922; H2O) [µg/mL] | also measured |
| --- | --- | --- | --- | --- | --- | --- | --- | --- | --- | --- | --- | --- | --- | --- | --- | --- | --- | --- | --- | --- | --- |
| CC(C)[C@@H](CNC(=O)C(=Cc1ccccc1)c1ccccc1)NC(=O)[C@H](CCCNC(=N)N)NC(=O)[C@H](CCCCNC(=N)N)NC(=O)OCc1ccccc1 [Compound A-192] | 8 (≈ 10.4 µM) | 8 (≈ 10.4 µM) | 8 (≈ 10.4 µM) | 8 (≈ 10.4 µM) | 8 (≈ 10.4 µM) | 4 (≈ 5.2 µM) | 32 (≈ 41.6 µM) | > 512 | > 512 | 512 (≈ 666 µM) | 256 (≈ 333 µM) | 256 (≈ 333 µM) | 256 (≈ 333 µM) | 256 (≈ 333 µM) | 256 (≈ 333 µM) | 256 (≈ 333 µM) | 32 (≈ 41.6 µM) | > 512 | > 512 | > 512 | MBC (S. cohnii c.i.; H2O): 32 µg/mL (≈ 41.6 µM); MIC (S. cohnii c.i.; H2O): 16 µg/mL (≈ 20.8 µM); MIC (S. cohnii c.i.; water additive DMSO): 32 µg/mL (≈ 41.6 µM); MBC (S. cohnii c.i.; water additive EtOH): 32 µg/mL (≈ 41.6 µM); MIC (S. cohnii c.i.; water additive EtOH): 16 µg/mL (≈ 20.8 µM); MIC (E. faecalis c.i.; water additive EtOH): 256 µg/mL (≈ 333 µM); MIC (S. agalactiae ATCC 27956; H2O): 32 µg/mL (≈ 41.6 µM); MIC (S. mutans c.i.; H2O): > 512 µg/mL; MBC (E. coli ATCC 25922; water additive DMSO): 512 µg/mL (≈ 666 µM); MIC (E. coli ATCC 25922; water additive DMSO): 256 µg/mL (≈ 333 µM); MIC (E. coli ATCC 25922; water additive EtOH): > 512 µg/mL; MIC (P. vulgaris ATCC 6896; H2O): > 512 µg/mL; MIC (P. vulgaris ATCC 6896; water additive DMSO): > 512 µg/mL; MIC (P. vulgaris ATCC 6896; water additive EtOH): > 512 µg/mL; MBC (P. aeruginosa ATCC 10145; H2O): 256 µg/mL (≈ 333 µM); MIC (P. aeruginosa ATCC 10145; water additive EtOH): > 512 µg/mL; cytotoxicity (LDH), in words [1]: high cytotoxicity toward keratinocytes; cytotoxicity (LDH), in words (fibroblasts (46BR.1N)): much lower |
| CC(C)[C@@H](CNC(=O)C(=Cc1ccccc1)c1ccccc1)NC(=O)[C@H](Cc1c[nH]cn1)NC(=O)[C@H](CCCCNC(=N)N)NC(=O)OCc1ccccc1 [Compound A-193] | 16 (≈ 21.3 µM) | 8 (≈ 10.7 µM) | 16 (≈ 21.3 µM) | 8 (≈ 10.7 µM) | 16 (≈ 21.3 µM) | 8 (≈ 10.7 µM) | 256 (≈ 341 µM) | 256 (≈ 341 µM) | 512 (≈ 683 µM) | 256 (≈ 341 µM) | 32 (≈ 42.7 µM) | 8 (≈ 10.7 µM) | 8 (≈ 10.7 µM) | 4 (≈ 5.33 µM) | 32 (≈ 42.7 µM) | 8 (≈ 10.7 µM) | 32 (≈ 42.7 µM) | 8 (≈ 10.7 µM) | 8 (≈ 10.7 µM) | 256 (≈ 341 µM) | MBC (E. faecalis c.i.; H2O): 512 µg/mL (≈ 683 µM); MBC (S. mutans c.i.; water additive DMSO): 16 µg/mL (≈ 21.3 µM); MBC (S. mutans c.i.; water additive EtOH): 16 µg/mL (≈ 21.3 µM); MBC (E. coli ATCC 25922; H2O): 256 µg/mL (≈ 341 µM); MIC (E. coli ATCC 25922; water additive DMSO): > 512 µg/mL; MBC (E. coli ATCC 25922; water additive EtOH): 512 µg/mL (≈ 683 µM); MIC (E. coli ATCC 25922; water additive EtOH): 256 µg/mL (≈ 341 µM); MIC (P. vulgaris ATCC 6896; H2O): > 512 µg/mL; MIC (P. vulgaris ATCC 6896; water additive DMSO): > 512 µg/mL; MIC (P. vulgaris ATCC 6896; water additive EtOH): > 512 µg/mL; MIC (P. aeruginosa ATCC 10145; H2O): > 512 µg/mL; MIC (P. aeruginosa ATCC 10145; water additive DMSO): 512 µg/mL (≈ 683 µM); MIC (P. aeruginosa ATCC 10145; water additive EtOH): > 512 µg/mL; cytotoxicity (LDH), in words [1]: cytotoxic only at a concentration of 150 μg/mL; concentration at which cytotoxic effect starts ([1]; LDH): 150 µg/mL; cytotoxicity (LDH), in words (fibroblasts (46BR.1N)): cytotoxic only at a concentration of 150 μg/mL; concentration at which cytotoxic effect starts (fibroblasts (46BR.1N); LDH): 150 µg/mL |

Reference: publication PMC12332667, “Role of Structural Modifications in Peptidomimetic Compounds as Potential Antimicrobial Agents against Staphylococcus aureus and Streptococcus pyogenes: Balancing Bioavailability, Safety, and Antimicrobial Activity” (ACS Omega, 2025)
